Reference: article PMC2909451 (European journal of pharmaceutical sciences : official …, 2010)
Structures can show the parent of a compound that is named as a salt. Where two headings read alike, the source gives them in different places.

Legend:
[1] = target: T1, human apical sodium-dependent transporter (SLC10A2, ASBT) (Homo sapiens, UniProt Q12908)
T1 sequence (Q12908 1-348): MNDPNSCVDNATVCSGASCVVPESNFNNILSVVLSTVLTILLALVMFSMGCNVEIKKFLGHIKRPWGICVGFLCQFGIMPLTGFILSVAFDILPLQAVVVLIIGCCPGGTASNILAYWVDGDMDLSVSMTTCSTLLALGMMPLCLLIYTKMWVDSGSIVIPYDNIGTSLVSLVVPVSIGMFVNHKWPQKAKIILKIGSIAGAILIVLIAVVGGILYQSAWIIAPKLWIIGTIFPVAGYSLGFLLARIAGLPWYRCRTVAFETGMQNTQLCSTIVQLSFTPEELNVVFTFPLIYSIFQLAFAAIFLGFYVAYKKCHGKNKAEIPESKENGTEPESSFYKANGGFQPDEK

[2] = target: T1, human apical sodium-dependent transporter (SLC10A2, ASBT); assay: ASBT cis-inhibition of taurocholate uptake in ASBT-MDCK cells; details: for potency estimated from few doses: read-out: Ki estimated from one concentration; for inhibition at 25 µM / inhibition at 200 µM / inhibition at 1000 µM / inhibition at 10 µM / inhibition at 5 µM / inhibition at 5000 µM: read-out: percent taurocholate inhibited at the highest inhibitor concentration
[3] = Ki, inhibitor concentration range 0-25 μM, mean±S.E.
[4] = Ki, inhibitor concentration range 0-50 μM, mean±S.E.
[5] = Ki, inhibitor concentration range 0-200 μM, mean±S.E.
[6] = Ki, inhibitor concentration range 0-500 μM, mean±S.E.
[7] = Ki, inhibitor concentration range 0-1000 μM, mean±S.E.
[8] = Reference Ki, from the comprehensive inhibition profile
[9] = Ki, inhibitor concentration range 0-100 μM, mean±S.E.
[10] = Ki, inhibitor concentration range 0-10 μM, mean±S.E.
[11] = Ki, inhibitor concentrations 0, 25 μM (Table 2), mean±S.E.
[12] = Ki, inhibitor concentration range 0-5000 μM, mean±S.E.

SMILES | inhibition ([1]; 50 µM) | inhibition ([1]; 100 µM) | inhibition ([1]; 500 µM) | Ki [2, 3] | Ki [2, 4] | Ki [2, 5] | Ki [2, 6] | Ki [2, 7] | Ki [2, 8] | potency estimated from few doses [2] | inhibition at 25 µM [2] | inhibition at 200 µM [2] | inhibition at 1000 µM [2] | Ki [2, 9] | inhibition at 10 µM [2] | other results
Clc1ccc(C(Cn2ccnc2)OCc2ccsc2Cl)c(Cl)c1 (stereo not drawn) [Tioconazole, tioconazole] | 47.7% | 63.7% | 87.1% | 32.3 ± 6.3 µM | 32.7 ± 4.7 µM | 33.7 ± 3.1 µM | 33.6 ± 2.8 µM | 34.1 ± 2.7 µM | 34.1 µM | 33 ± 6.2 µM | 32.2% | 74% | 87.2% | – | – | Ki ([2]; inhibitor concentration range 0-100 μM, mean±S.E.): 32.8 ± 3.6 µM
Cc1c(OCC(F)(F)F)ccnc1C[S+]([O-])c1nc2ccccc2[nH]1 (stereo not drawn) [Lansoprazole] | 29.5% | 39.4% | 73.6% | 40.9 ± 7.09 µM | 62.1 ± 11.3 µM | 134 ± 25 µM | 132 ± 19 µM | 120 ± 16 µM | 120 µM | 116 ± 2 µM | 30.2% | 44.4% | 91.9% | 86.9 ± 14.7 µM | 5.99% | Ki ([2]; Ki, inhibitor concentrations 0, 10 μM (Table 4), mean±S.E.): 103 ± 37 µM
COCc1c(C(C)C)nc(C(C)C)c(/C=C/[C@@H](O)C[C@@H](O)CC(=O)O)c1-c1ccc(F)cc1 [Cerivastatin, cerivastatin] | – | – | – | – | – | – | – | – | – | 47.4 ± 22.5 µM | – | – | – | – | – | –
O=C(O)C[C@H](O)C[C@H](O)/C=C/c1c(C2CC2)nc2ccccc2c1-c1ccc(F)cc1 [Pitavastatin] | 36.5% | 52.4% | 78.6% | 54.1 ± 10.9 µM | 59.8 ± 7.5 µM | 64.9 ± 4.8 µM | 67.6 ± 4.8 µM | – | 67.6 µM | 56.1 ± 4.4 µM | 22.7% | 64.6% | – | 60.9 ± 5.3 µM | 14.4% | Ki ([2]; Ki, inhibitor concentration range 0-5 μM, mean±S.E.): 27.9 ± 7.3 µM; Ki [2, 10]: 29.7 ± 5.9 µM; inhibition at 5 µM [2]: 10.4%
COc1ccc2c(c1)c(CC(=O)O)c(C)n2C(=O)c1ccc(Cl)cc1 [Indomethacin, indomethacin] | 27.3% | 46.8% | 76.4% | 53.9 ± 8.9 µM | 80.5 ± 13.7 µM | 84.2 ± 7.3 µM | 87.8 ± 6.8 µM | 86.4 ± 6 µM | 86.4 µM | 86.9 ± 12.5 µM | 23.2% | 59.1% | 89.5% | 77.9 ± 8.4 µM | 11% | Ki [2, 10]: 52.6 ± 13.6 µM
COc1ccc([C@@H]2Sc3ccccc3N(CCN(C)C)C(=O)[C@@H]2OC(C)=O)cc1 [Diltiazem hydrochloride, diltiazem hydrochloride] | 19.5% | 26.5% | 52.4% | – | 124 ± 16 µM | 221 ± 28 µM | 273 ± 30 µM | 301 ± 28 µM | 301 µM | 296 ± 22 µM | 16% | 36.4% | 66.1% | 174 ± 26 µM | – | Ki [2, 11]: 86.4 ± 11.9 µM
CC(C)n1c(/C=C/C(O)CC(O)CC(=O)O)c(-c2ccc(F)cc2)c2ccccc21 (stereo not drawn) [Fluvastatin, fluvastatin] | 52.6% | 77% | 95.5% | 24.5 ± 2.4 µM | 27.4 ± 2 µM | 25.1 ± 1.6 µM | 24.9 ± 1.6 µM | 24.8 ± 1.4 µM | 24.8 µM | 29.7 ± 2.4 µM | 40.2% | 82.9% | 96.2% | 24.9 ± 1.9 µM | – | Ki [2, 12]: 24.8 ± 1.3 µM; inhibition at 5000 µM [2]: 99.8%
CN1CCN(CC/C=C2/c3ccccc3Sc3ccc(S(=O)(=O)N(C)C)cc32)CC1 [Thiothixene, thiothixene] | – | – | 25.7% | – | – | 1030 ± 344 µM | 913 ± 115 µM | 1110 ± 136 µM | 917 µM | 905 ± 105 µM | – | 34.6% | 11% | – | – | Ki [2, 12]: 917 ± 111 µM; inhibition at 5000 µM [2]: 83.3%
N=C(N)c1ccc(OCCCCCOc2ccc(C(=N)N)cc2)cc1 [Pentamidine Isethionate, pentamidine isethionate] | 10.7% | 27.9% | 62.8% | – | 253 ± 126 µM | 147 ± 23 µM | 164 ± 20 µM | 174 ± 19 µM | 174 µM | 194 ± 27 µM | 10.9% | 52.7% | 74.4% | 189 ± 40 µM | – | Ki [2, 11]: 134 ± 82 µM
CCCCNc1cc(C(=O)O)cc(S(N)(=O)=O)c1Oc1ccccc1 [Bumetanide, bumetanide] | 12.2% | 15.6% | 48% | 211 ± 108 µM | 232 ± 60 µM | 299 ± 33 µM | 338 ± 28 µM | 341 ± 22 µM | 341 µM | 354 ± 35 µM | 7.1% | 32.1% | 65.6% | 343 ± 75 µM | – | –
CC(C)c1nc(N(C)S(C)(=O)=O)nc(-c2ccc(F)cc2)c1/C=C/[C@@H](O)C[C@@H](O)CC(=O)O [Rosuvastatin] | 19.4% | 37.8% | 71% | – | 148 ± 33 µM | 115 ± 10 µM | 117 ± 8 µM | – | 117 µM | 123 ± 11 µM | 8.9% | 53.3% | – | 118 ± 15 µM | 11.7% | Ki [2, 10]: 46.7 ± 14.4 µM; Ki ([2]; Ki, inhibitor concentrations 0, 5 μM (Table 2), mean±S.E.): 196 ± 423 µM; Ki [2, 11]: 147 ± 67 µM; inhibition at 5 µM [2]: 1.54%
CC(C(=O)O)c1cccc(C(=O)c2ccccc2)c1 (stereo not drawn) [Ketoprofen, ketoprofen] | – | – | 49.7% | – | – | 255 ± 14 µM | 305 ± 26 µM | 328 ± 24 µM | 310 µM | 336 ± 26 µM | – | 34.2% | 64.7% | – | – | Ki [2, 12]: 310 ± 28 µM; inhibition at 5000 µM [2]: 98%
NS(=O)(=O)c1cc2c(cc1C(F)(F)F)NC(Cc1ccccc1)NS2(=O)=O (stereo not drawn) [Bendroflumethiazide, bendroflumethiazide] | 30.5% | 37.6% | 63.6% | 166 ± 115 µM | 84.3 ± 20.7 µM | 121 ± 18 µM | 144 ± 20 µM | 149 ± 18 µM | 149 µM | 188 ± 21 µM | 8.86% | 46.6% | 79.4% | 96.4 ± 16.2 µM | – | –
